# Measurements: the supplement of paper PMC12513837
# Compound: CC(=O)N1CCc2c(c(N3CCCc4cc(-c5cnn(C)c5)c(C(F)F)cc43)nn2C2CCC(CN3CCN(c4ccc5c(c4)C(=O)N(C4CCC(=O)NC4=O)C5=O)CC3)CC2)C1 [CBPD-409]
# Experiment: AUC of viability dose-response curve (relative to vehicle, 8 doses up to 10 µM) (fraction); higher = less sensitive (more viable); extreme values may be limits of the assay
# Protocol: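 PRISM multiplexed pooled barcoded cell line viability screen at the Broad Institute, 887 cancer cell lines treated with CBPD-409 (p300/CBP PROTAC degrader) at 8 concentrations in threefold dilution, top dose 10 µM. The read-out is the area under the dose-response curve of relative viability versus vehicle (n=3). AUC < 0.3 is called strongly sensitive and AUC > 0.8 resistant.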
row,Test System,AUC of viability dose-response curve
1,SNU61_LARGE_INTESTINE,0.875
2,SNU81_LARGE_INTESTINE,0.767
3,SNU119_OVARY,1
4,SNU182_LIVER,0.274
5,SNU201_CENTRAL_NERVOUS_SYSTEM,0.382
6,SNU213_PANCREAS,0.933
7,SNU216_STOMACH,1
8,SNU245_BILIARY_TRACT,0.719
9,SNU308_BILIARY_TRACT,0.95
10,SNU398_LIVER,0.849
11,SNU407_LARGE_INTESTINE,0.502
12,SNU410_PANCREAS,1
13,SNU423_LIVER,0.751
14,SNU449_LIVER,0.947
15,SNU466_CENTRAL_NERVOUS_SYSTEM,0.909
16,SNU478_BILIARY_TRACT,0.861
17,SNU489_CENTRAL_NERVOUS_SYSTEM,1
18,SNU601_STOMACH,0.563
19,SNU638_STOMACH,0.48
20,SNU668_STOMACH,0.999

row,Test System,AUC of viability dose-response curve
1,SNU685_ENDOMETRIUM,1
2,SNU719_STOMACH,0.969
3,SNU761_LIVER,0.855
4,SNU840_OVARY,1
5,SNU869_BILIARY_TRACT,1
6,SNU886_LIVER,0.853
7,SNU899_UPPER_AERODIGESTIVE_TRACT,0.668
8,SNU1041_UPPER_AERODIGESTIVE_TRACT,0.703
9,SNU1066_UPPER_AERODIGESTIVE_TRACT,1
10,SNU1076_UPPER_AERODIGESTIVE_TRACT,0.845
11,SNU1077_ENDOMETRIUM,0.846
12,SNU1079_BILIARY_TRACT,0.648
13,SNU1105_CENTRAL_NERVOUS_SYSTEM,0.577
14,SNU1196_BILIARY_TRACT,1
15,SNU1214_UPPER_AERODIGESTIVE_TRACT,0.739
16,SNU1544_LARGE_INTESTINE,0.806
17,SNU2372_BREAST,1
18,SNUC2A_LARGE_INTESTINE,0.514
19,SNUC4_LARGE_INTESTINE,0.595
20,SQ1_LUNG,1

row,Test System,AUC of viability dose-response curve
1,SSP25_BILIARY_TRACT,0.801
2,STM9101_SOFT_TISSUE,1
3,SUDHL1_HAEMATOPOIETIC_AND_LYMPHOID_TISSUE,0.75
4,SUDHL4_HAEMATOPOIETIC_AND_LYMPHOID_TISSUE,0.958
5,SUDHL8_HAEMATOPOIETIC_AND_LYMPHOID_TISSUE,0.726
6,SUIT2_PANCREAS,1
7,SUM149PT_BREAST,0.789
8,SUM159PT_BREAST,0.732
9,SUPB15_HAEMATOPOIETIC_AND_LYMPHOID_TISSUE,0.185
10,SUPT11_HAEMATOPOIETIC_AND_LYMPHOID_TISSUE,1
11,SUSA_TESTIS,0.578
12,SW13_ADRENAL_CORTEX,0.602
13,SW156_KIDNEY,0.884
14,SW480_LARGE_INTESTINE,1
15,SW579_THYROID,0.197
16,SW620_LARGE_INTESTINE,0.559
17,SW626_LARGE_INTESTINE,0.387
18,SW756_CERVIX,0.437
19,SW780_URINARY_TRACT,1
